Experimental data taken from PubChem BioAssay (NCI).
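Compound exposure: 48 hours, 5 concentrations, 96-well plates. Abbreviation: GI50, concentration required for 50% inhibition of growth. TGI: total growth inhibition.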

How the values were obtained:
Test in all cases: growth of human tumour cells (NCI), 48 h; in the data active = GI50 below about 0.43 µM; inactive = the rest
SW-620 colon = tested on: SW-620 colon
MDA-MB-231 breast = tested on: MDA-MB-231 breast
MALME-3M melanoma = tested on: MALME-3M melanoma
PC-3 prostate = tested on: PC-3 prostate
UACC-62 melanoma = tested on: UACC-62 melanoma
HOP-62 NSCLC = tested on: HOP-62 NSCLC
NCI-H522 lung = tested on: NCI-H522 lung
M14 melanoma = tested on: M14 melanoma
TK-10 renal = tested on: TK-10 renal
NCI/ADR-RES ovarian = tested on: NCI/ADR-RES ovarian
DU-145 prostate = tested on: DU-145 prostate
OVCAR-5 ovarian = tested on: OVCAR-5 ovarian
HT29 colon = tested on: HT29 colon
SK-MEL-2 melanoma = tested on: SK-MEL-2 melanoma
KM12 colon = tested on: KM12 colon
SF-295 CNS = tested on: SF-295 CNS
SN12C renal = tested on: SN12C renal
OVCAR-3 ovarian = tested on: OVCAR-3 ovarian
SK-MEL-28 melanoma = tested on: SK-MEL-28 melanoma
786-0 renal = tested on: 786-0 renal
COLO 205 colon = tested on: COLO 205 colon
HCC-2998 colon = tested on: HCC-2998 colon
ACHN renal = tested on: ACHN renal
HOP-92 NSCLC = tested on: HOP-92 NSCLC
A498 renal = tested on: A498 renal
HL-60(TB) leukemia = tested on: HL-60(TB) leukemia
SF-539 CNS = tested on: SF-539 CNS
NCI-H460 lung = tested on: NCI-H460 lung
SR leukemia = tested on: SR leukemia
CAKI-1 renal = tested on: CAKI-1 renal
LOX IMVI melanoma = tested on: LOX IMVI melanoma
BT-549 breast = tested on: BT-549 breast
CCRF-CEM leukemia = tested on: CCRF-CEM leukemia
T-47D breast = tested on: T-47D breast
HS 578T breast = tested on: HS 578T breast
SNB-75 CNS = tested on: SNB-75 CNS
MDA-MB-435 = tested on: MDA-MB-435
MOLT-4 leukemia = tested on: MOLT-4 leukemia
K-562 leukemia = tested on: K-562 leukemia
IGROV1 ovarian = tested on: IGROV1 ovarian
SF-268 CNS = tested on: SF-268 CNS
UO-31 renal = tested on: UO-31 renal
SK-OV-3 ovarian = tested on: SK-OV-3 ovarian
A549 NSCLC = tested on: A549 NSCLC
SK-MEL-5 melanoma = tested on: SK-MEL-5 melanoma
RPMI-8226 leukemia = tested on: RPMI-8226 leukemia
OVCAR-8 ovarian = tested on: OVCAR-8 ovarian
HCT-116 colon = tested on: HCT-116 colon
RXF 393 renal = tested on: RXF 393 renal
UACC-257 melanoma = tested on: UACC-257 melanoma
NCI-H226 lung = tested on: NCI-H226 lung
NCI-H23 lung = tested on: NCI-H23 lung
SNB-19 CNS = tested on: SNB-19 CNS
U251 CNS = tested on: U251 CNS
OVCAR-4 ovarian = tested on: OVCAR-4 ovarian
MCF7 breast = tested on: MCF7 breast
HCT-15 colon = tested on: HCT-15 colon

Cn1cc(C2=C(c3c4n(c5ccccc35)CCNC4)C(=O)NC2=O)c2ccccc21
> 21.8 µM: TGI (COLO 205 colon)
> 20.2 µM: TGI (UACC-257 melanoma)
> 19.1 µM: TGI (NCI-H522 lung)
> 23.8 µM: TGI (MCF7 breast)
14.3 µM: TGI (A498 renal) | TGI (SF-539 CNS)
> 24.1 µM: TGI (MALME-3M melanoma)
> 20.5 µM: TGI (HS 578T breast)
> 21.5 µM: TGI (IGROV1 ovarian)
> 21.7 µM: TGI (OVCAR-3 ovarian)
> 21.3 µM: TGI (SK-MEL-2 melanoma)
> 17.2 µM: TGI (SK-MEL-5 melanoma)
> 17.4 µM: TGI (HCC-2998 colon)
14.1 µM: TGI (RXF 393 renal)
> 22.3 µM: TGI (CAKI-1 renal) | TGI (RPMI-8226 leukemia)
> 17.1 µM: TGI (MDA-MB-435)
12 µM: TGI (SNB-75 CNS)
> 25 µM: TGI (SW-620 colon) | TGI (MDA-MB-231 breast) | TGI (PC-3 prostate) | TGI (UACC-62 melanoma) | TGI (HOP-62 NSCLC) | TGI (M14 melanoma) | TGI (TK-10 renal) | TGI (NCI/ADR-RES ovarian) | TGI (DU-145 prostate) | TGI (OVCAR-5 ovarian) | TGI (HT29 colon) | TGI (KM12 colon) | TGI (SF-295 CNS) | TGI (SN12C renal) | TGI (SK-MEL-28 melanoma) | TGI (786-0 renal) | TGI (ACHN renal) | TGI (HOP-92 NSCLC) | TGI (HL-60(TB) leukemia) | TGI (NCI-H460 lung) | TGI (SR leukemia) | TGI (LOX IMVI melanoma) | TGI (BT-549 breast) | TGI (CCRF-CEM leukemia) | TGI (T-47D breast) | TGI (MOLT-4 leukemia) | TGI (K-562 leukemia) | TGI (SF-268 CNS) | TGI (SK-OV-3 ovarian) | TGI (A549 NSCLC) | TGI (OVCAR-8 ovarian) | TGI (HCT-116 colon) | TGI (NCI-H226 lung) | TGI (NCI-H23 lung) | TGI (SNB-19 CNS) | TGI (U251 CNS) | TGI (OVCAR-4 ovarian) | TGI (HCT-15 colon)
> 22.2 µM: TGI (UO-31 renal)
inactive: GI50 (SW-620 colon) 6.92 µM | GI50 (MDA-MB-231 breast) 9.87 µM | GI50 (MALME-3M melanoma) > 11.5 µM | GI50 (PC-3 prostate) 7.02 µM | GI50 (UACC-62 melanoma) 7.63 µM | GI50 (HOP-62 NSCLC) 17.5 µM | GI50 (NCI-H522 lung) 4.65 µM | GI50 (M14 melanoma) 12.4 µM | GI50 (TK-10 renal) 11.3 µM | GI50 (NCI/ADR-RES ovarian) 12.7 µM | GI50 (DU-145 prostate) 12.6 µM | GI50 (OVCAR-5 ovarian) > 25 µM | GI50 (HT29 colon) 5.2 µM | GI50 (SK-MEL-2 melanoma) 8.03 µM | GI50 (KM12 colon) 8.63 µM | GI50 (SF-295 CNS) 5.69 µM | GI50 (SN12C renal) 11.9 µM | GI50 (OVCAR-3 ovarian) 5.42 µM | GI50 (SK-MEL-28 melanoma) > 15.3 µM | GI50 (786-0 renal) 14.8 µM | GI50 (COLO 205 colon) 6.66 µM | GI50 (HCC-2998 colon) 7.41 µM | GI50 (ACHN renal) 7.93 µM | GI50 (HOP-92 NSCLC) 11.5 µM | GI50 (A498 renal) 4.71 µM | GI50 (HL-60(TB) leukemia) 3.92 µM | GI50 (SF-539 CNS) 5.72 µM | GI50 (NCI-H460 lung) 10.6 µM | GI50 (SR leukemia) 3.73 µM | GI50 (CAKI-1 renal) 5.85 µM | GI50 (LOX IMVI melanoma) 11.3 µM | GI50 (BT-549 breast) 16.7 µM | GI50 (CCRF-CEM leukemia) 8.91 µM | GI50 (T-47D breast) > 21.2 µM | GI50 (HS 578T breast) 4.14 µM | GI50 (SNB-75 CNS) 1.04 µM | GI50 (MDA-MB-435) 0.991 µM | GI50 (MOLT-4 leukemia) 11 µM | GI50 (K-562 leukemia) 4.1 µM | GI50 (IGROV1 ovarian) > 10 µM | GI50 (SF-268 CNS) 10.5 µM | GI50 (UO-31 renal) 4.53 µM | GI50 (SK-OV-3 ovarian) 8.84 µM | GI50 (A549 NSCLC) 11.8 µM | GI50 (SK-MEL-5 melanoma) 4.82 µM | GI50 (RPMI-8226 leukemia) 10.1 µM | GI50 (OVCAR-8 ovarian) > 16.9 µM | GI50 (HCT-116 colon) 9.68 µM | GI50 (RXF 393 renal) 3.73 µM | GI50 (UACC-257 melanoma) > 11.4 µM | GI50 (NCI-H226 lung) 13.8 µM | GI50 (NCI-H23 lung) 24.5 µM | GI50 (SNB-19 CNS) > 22 µM | GI50 (U251 CNS) 9.23 µM | GI50 (OVCAR-4 ovarian) > 9.74 µM | GI50 (MCF7 breast) 4.78 µM | GI50 (HCT-15 colon) 5.71 µM
